Consider 10 compounds from ChEMBL document CHEMBL1158898, “New flavans, spirostanol sapogenins, and a pregnane genin from Tupistra chinensis and their cytotoxicity” (2003).

A word on the inhibition: it is the drop in the measured response relative to a control, in per cent.

The subject of one assay is NUGC. Put plainly: Cytotoxicity against human NUGC cells at 50 uM. It counts as functional.
Assay [1] in a line: Cytotoxicity against human HONE1 cells at 50 uM. It counts as functional.

Take `C=C1CC[C@@]2(OC1)O[C@H]1C[C@H]3[C@@H]4CC[C@]5(O)[C@@H](O)[C@@H](O)[C@@H](O)[C@@H](O)[C@]5(C)[C@H]4CC[C@]3(C)[C@H]1[C@@H]2C`: the inhibition at 50 µM (in the assay on NUGC; in assay [1]) was 100% each time.
For the compound `C=C1CC[C@@]2(OC1)O[C@H]1C[C@H]3[C@@H]4CC=C5C[C@H](O)C[C@@H](O)[C@]5(C)[C@H]4CC[C@]3(C)[C@H]1[C@@H]2C`, 50 µM produced 45% inhibition in assay [1].
With `C=CCc1ccc(O)c(O)c1` [HYDROXYCHAVICOL], the inhibition at 50 µM in the assay on NUGC was 96%.
On the same count and under the same terms, the same measure for `C=C1CC[C@@]2(OC1)O[C@H]1C[C@H]3[C@@H]4CC[C@]5(O)[C@@H](O)[C@@H](O)C[C@@H](O)[C@]5(C)[C@H]4CC[C@]3(C)[C@H]1[C@@H]2C` [RANMOGENIN A]: 80%; for `C=C1CC[C@@]2(OC1)O[C@H]1C[C@H]3[C@@H]4CC[C@]5(O)C[C@@H](OC(C)=O)[C@@H](OC(C)=O)[C@@H](OC(C)=O)[C@]5(C)[C@H]4CC[C@]3(C)[C@H]1[C@@H]2C` [TUPICHIGENIN AA]: 50%; for `C=C1CC[C@@]2(OC1)O[C@H]1C[C@H]3[C@@H]4CC[C@]5(O)C[C@@H](O)[C@@H](OC(C)=O)[C@@H](OC(C)=O)[C@]5(C)[C@H]4CC[C@]3(C)[C@H]1[C@@H]2C` [TUPICHIGENIN AC]: 40%.
The same measure, in the same setting: then `C=C1CC[C@@]2(OC1)O[C@H]1C[C@H]3[C@@H]4CC[C@]5(O)C[C@@H](O)[C@@H](O)[C@@H](O)[C@]5(C)[C@H]4CC[C@]3(C)[C@H]1[C@@H]2C` [TUPICHIGENIN A], with 42%.
As to `COc1ccc2c(c1C)O[C@H](c1ccc(O)cc1)[C@H](O)C2` [TUPICHINOL A], in the assay on NUGC, at 50 µM the inhibition was 30%.
The compound `Oc1ccc([C@H]2CCc3ccc(O)cc3O2)cc1` [TUPICHINOL C] displayed an inhibition at 50 µM in assay [1] of 50%.
In the assay with NUGC, `CC(=O)C1=CC[C@H]2[C@@H]3CC=C4C[C@H](O)C[C@@H](O)[C@]4(C)[C@H]3CC[C@]12C` [TUPIPREGNENOLONE] returned an inhibition at 50 µM of 25%.
